A short description of the data set: in vitro. The note with it: human, HEK293 cell homogenate.

The results in this text go back to PMC3985417 (Journal of Medicinal Chemistry, 2014).

The term fraction unbound denotes free concentration divided by total concentration. Low readings indicate extensive binding, high ones weak binding. `CN(C)CCCN1c2ccccc2CCc2ccccc21` [Imipramine] yielded a fraction unbound at 4 h of 0.59 ± 0.013.
